Laboratory results from PubChem BioAssay AID1963856 (Molecular Pharmacology Branch, DTP, NCI, 2024).

Tested on: LG0567-F671-PDC KRAS tumor spheroid viability
Assay: Anticancer human tumor LG0567-F671-PDC patient-derived lung adenocarcinoma cell line growth inhibition [KRAS2]
Conditions: spheroids with HUVEC and MSC; for IC50: curve of first compound; for viability, T/C: stronger effect = lower value
Excerpt: Multicellular complex tumor spheroid response to RAS pathway inhibitors in combination with a targeted agents in patient-derived cell lines with oncogenic KRAS variants from multiple cancer types
A high-throughput screen of multi-cell type tumor spheroids was designed to identify active combinations of targeted small molecules and KRAS pathway inhibitors. Complex spheroids include a stromal component modeled by human endothelial cells (HUVEC) and fibroblasts modeled by human mesenchymal stem cells (MSCs). The concentration ranges selected for each drug and investigational agent were based upon clinically achievable concentrations if the clinical Cmax of the agent was known.
Compounds. The drugs and investigational agents: BI-3406 (NSC825286), BAY-293 (NSC824723), batoprotafib (TNO155; NSC825523), sotorasib (AMG 510; NSC818433), MRTX1257 (NSC819558), elimusertib (BAY 1895344; NSC800525), molibresib (GSK525762; NSC774829), temuterkib (LY3214996; NSC803410), venetoclax (NSC766270), alisertib (NSC759677), olaparib (NSC753686), talazoparib (NSC767125), erdafitinib (NSC781556), ipatasertib (NSC767898), cabozantinib (NSC761068), nintedanib (NSC756659), abemaciclib (NSC768073), docetaxel (NSC628503), trametinib (NSC758246), and sapanisertib (NSC764658) were obtained from the National Cancer Institute (NCI) Developmental Therapeutics Program Chemical Repository. The FDA-approved anticancer drug set is available from the Developmental Therapeutics Program. […] The stock solutions were prepared in dimethyl sulfoxide (DMSO, Sigma-Aldrich, St. Louis, MO, cat. D2650) at 800-fold the tested concentration and stored at -70 degrees C prior to their use. All drugs and investigational agents were tested over a range starting from a high concentration at or near the clinical Cmax and decreasing in half-log increments. If the clinical Cmax for an agent had not been determined, the highest concentration tested was 10 microM.
Cell Culture. All cells were maintained in an incubator at 37 degrees C and 5% CO2 with 95% humidity. The PDC lines were cultured according to standard operating procedures established by the NCI PDMR (https://pdmr.cancer.gov/sops/default.htm). Briefly, all PDCs were thawed and cultured in Matrigel-coated flasks prepared with a working solution of 1X Ham's F-12 nutrient mix, without supplementation (Invitrogen, Waltham, MA, cat. 11765054), 100 U/mL penicillin-streptomycin (Invitrogen, cat. 15140122), and 2.5% Matrigel (Corning Inc., Corning, NY, cat. 354248) for the first three passages. All PDCs were cultured in complete DMEM/F-12 media containing advanced DMEM/F-12 (Invitrogen, cat. 12634028), 4.9% defined fetal bovine serum, heat inactivated (HyClone Laboratories Inc., Logan, UT, cat. SH30070.03HI), 389 ng/mL hydrocortisone (Sigma-Aldrich, cat. H4001), 9.7 ng/mL human EGF recombinant protein (Invitrogen, cat. PHG0313), 23.4 microg/mL adenine (Sigma-Aldrich, cat. A2786), 97.3 U/mL penicillin-streptomycin (Invitrogen, cat. 15140122), 1.9 mM L-glutamine (Invitrogen, cat. 25030081), and 9.7 microM Y-27632 dihydrochloride (Tocris Bioscience, Bristol, United Kingdom, cat. 1254). The PDCs were cultured in complete DMEM/F12 media without 9.7 microM Y-27632 dihydrochloride for at least two passages prior to the screen. The established cell line HOP-62 was cultured in RPMI 1640 medium, HEPES (Invitrogen, cat. 22400105) with 10% defined fetal bovine serum (HyClone Laboratories Inc., cat. SH30070.03) and 2 mM L-glutamine (Invitrogen, cat. 25030081). The pooled donor HUVEC were cultured in endothelial cell growth medium 2 (PromoCell, Heidelberg, Germany, cat. C-22011) and the hMSC were cultured in mesenchymal stem cell growth medium 2 (PromoCell, cat. C-28009). For all experiments, HUVEC and hMSC were used at passages </=5, while the malignant cell lines were used at passages </=15. […]

[1] = second compound 0.1 µM, first compound 0.0316 µM
[2] = second compound 0.1 µM, first compound 0.1 µM
[3] = second compound 0.1 µM, first compound 0.316 µM
[4] = second compound 0.1 µM, first compound 1 µM
[5] = second compound 0.316 µM, first compound 0.0316 µM
[6] = second compound 0.316 µM, first compound 0.1 µM
[7] = second compound 0.316 µM, first compound 0.316 µM
[8] = second compound 0.316 µM, first compound 1 µM
[9] = second compound 1 µM, first compound 0.0316 µM
[10] = second compound 1 µM, first compound 0.1 µM
[11] = second compound 1 µM, first compound 0.316 µM
[12] = second compound 1 µM, first compound 1 µM
[13] = second compound 3.16 µM, first compound 0.0316 µM
[14] = second compound 3.16 µM, first compound 0.1 µM
[15] = second compound 3.16 µM, first compound 0.316 µM
[16] = second compound 3.16 µM, first compound 1 µM
[17] = second compound 10 µM, first compound 0.0316 µM
[18] = second compound 10 µM, first compound 0.1 µM
[19] = second compound 10 µM, first compound 0.316 µM
[20] = second compound 10 µM, first compound 1 µM
[21] = second compound 0.1 µM, first compound 0.00316 µM
[22] = second compound 0.1 µM, first compound 0.01 µM
[23] = second compound 0.316 µM, first compound 0.00316 µM
[24] = second compound 0.316 µM, first compound 0.01 µM
[25] = second compound 1 µM, first compound 0.00316 µM
[26] = second compound 1 µM, first compound 0.01 µM
[27] = second compound 3.16 µM, first compound 0.00316 µM
[28] = second compound 3.16 µM, first compound 0.01 µM
[29] = second compound 10 µM, first compound 0.00316 µM
[30] = second compound 10 µM, first compound 0.01 µM
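Note: drug exposure lasted seven days after spheroids formed for three days.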
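Throughout, for viability, T/C: 100% = DMSO vehicle control viability.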

Structure (SMILES)	IC50 (second compound 0.1 µM) [nM]	IC50 (second compound 0.316 µM) [nM]	IC50 (second compound 1 µM) [nM]	IC50 (second compound 3.16 µM) [nM]	IC50 (second compound 10 µM) [nM]	viability, T/C [1] [%]	viability, T/C [2] [%]	viability, T/C [3] [%]	viability, T/C [4] [%]	viability, T/C [5] [%]	viability, T/C [6] [%]	viability, T/C [7] [%]	viability, T/C [8] [%]	viability, T/C [9] [%]	viability, T/C [10] [%]	viability, T/C [11] [%]	viability, T/C [13] [%]	viability, T/C [14] [%]	viability, T/C [17] [%]	viability, T/C [18] [%]	other results
CC(C)NCC(C(=O)N1CCN(c2ncnc3c2C(C)CC3O)CC1)c1ccc(Cl)cc1 (stereo not given) + C=CC(=O)N1CCN(c2nc(=O)n(-c3c(C)ccnc3C(C)C)c3nc(-c4c(O)cccc4F)c(F)cc23)C(C)C1	< 31.6	< 31.6	< 31.6	< 31.6	< 31.6	31.4	25.9	19.8	14	26.5	28.5	20.9	13.7	30.6	26.5	17	29.9	21.2	25.8	17	viability, T/C (second compound 0.1 µM, first compound 3.16 µM): 14.5%; viability, T/C (second compound 0.1 µM, first compound 10 µM): 12.8%; viability, T/C (second compound 0.316 µM, first compound 3.16 µM): 13.7%; viability, T/C (second compound 0.316 µM, first compound 10 µM): 10.6%; viability, T/C [12]: 15.9%; viability, T/C (second compound 1 µM, first compound 3.16 µM): 14.4%; viability, T/C (second compound 1 µM, first compound 10 µM): 12.6%; viability, T/C [15]: 19.9%; viability, T/C [16]: 19.1%; viability, T/C (second compound 3.16 µM, first compound 3.16 µM): 13.3%; viability, T/C (second compound 3.16 µM, first compound 10 µM): 11.3%; viability, T/C [19]: 15.6%; viability, T/C [20]: 13.3%; viability, T/C (second compound 10 µM, first compound 3.16 µM): 15%; viability, T/C (second compound 10 µM, first compound 10 µM): 11%
CCN1CCN(Cc2ccc(Nc3ncc(F)c(-c4cc(F)c5nc(C)n(C(C)C)c5c4)n3)nc2)CC1 + C=CC(=O)N1CCN(c2nc(=O)n(-c3c(C)ccnc3C(C)C)c3nc(-c4c(O)cccc4F)c(F)cc23)C(C)C1	< 3.16	< 3.16	< 3.16	< 3.16	< 3.16	17.2	18.7	19.8	24.2	16.3	16.4	18.6	25.7	16.8	17.3	22	18.6	15.9	22.3	20.6	viability, T/C [21]: 21.6%; viability, T/C [22]: 21.6%; viability, T/C [23]: 21.3%; viability, T/C [24]: 19.6%; viability, T/C [25]: 21.3%; viability, T/C [26]: 22.3%; viability, T/C [12]: 23.7%; viability, T/C [27]: 20.4%; viability, T/C [28]: 21.1%; viability, T/C [15]: 20.4%; viability, T/C [16]: 33.8%; viability, T/C [29]: 22.3%; viability, T/C [30]: 20.6%; viability, T/C [19]: 27.9%; viability, T/C [20]: 12.8%
Cn1ncnc1[C@H]1c2n[nH]c(=O)c3cc(F)cc(c23)N[C@@H]1c1ccc(F)cc1 + C=CC(=O)N1CCN(c2nc(=O)n(-c3c(C)ccnc3C(C)C)c3nc(-c4c(O)cccc4F)c(F)cc23)C(C)C1	< 0.316	< 0.316	< 0.316	< 0.316	< 0.316	23.8	24.4			24.1	21.6			23.6	22.8		23.4	21.1	19.6	20.1	viability, T/C (second compound 0.1 µM, first compound 0.000316 µM): 24.7%; viability, T/C (second compound 0.1 µM, first compound 0.001 µM): 27.1%; viability, T/C [21]: 21.8%; viability, T/C [22]: 21.3%; viability, T/C (second compound 0.316 µM, first compound 0.000316 µM): 25.5%; viability, T/C (second compound 0.316 µM, first compound 0.001 µM): 26.2%; viability, T/C [23]: 23.1%; viability, T/C [24]: 20.8%; viability, T/C (second compound 1 µM, first compound 0.000316 µM): 29.7%; viability, T/C (second compound 1 µM, first compound 0.001 µM): 27.1%; viability, T/C [25]: 27.1%; viability, T/C [26]: 20.9%; viability, T/C (second compound 3.16 µM, first compound 0.000316 µM): 24.8%; viability, T/C (second compound 3.16 µM, first compound 0.001 µM): 25.9%; viability, T/C [27]: 25.2%; viability, T/C [28]: 25.5%; viability, T/C (second compound 10 µM, first compound 0.000316 µM): 21.9%; viability, T/C (second compound 10 µM, first compound 0.001 µM): 23.5%; viability, T/C [29]: 24.6%; viability, T/C [30]: 20.2%
